Values of other authors, collected in EP0211258A2, “Microemulsion compositions” (ABBOTT LABORATORIES, priority 1985, dated 1987).

Settings: commonly employed aqueous solutions, 2.5%, w/v

CCCC(C)C1(CC)C(=O)NC(=S)NC1=O (stereo not shown) [thiopental sodium]
pH: 10.5
